Experimental data: ChEMBL document CHEMBL6153174, “Design and Synthesis of Novel Deazapurine DNMT 1 Inhibitors with In Vivo Efficacy in DLBCL” (J Med Chem, 2025)

Legend:
[1] = molecular target: T1, DNA (cytosine-5)-methyltransferase 1 (Homo sapiens, UniProt P26358); experiment: Inhibition of DNMT1 (unknown origin) preincubated for 15 mins followed by substrate and [3H-SAM] addition and measured after 60 mins by microbeta analysis
[2] = molecular target: T1, DNA (cytosine-5)-methyltransferase 1; experiment: Inhibition of DNMT1 (unknown origin) at 5 uM preincubated for 15 mins followed by substrate and [3H-SAM] addition and measured after 60 mins by microbeta analysis relative to control; details: time 75.0 min
[3] = molecular target: T2, DNA (cytosine-5)-methyltransferase 3A (Homo sapiens, UniProt Q9Y6K1); experiment: Inhibition of DNMT3A (unknown origin) at 5 uM preincubated for 15 mins followed by substrate and [3H-SAM] addition and measured after 60 mins by microbeta analysis relative to control; details: time 75.0 min
T2 sequence (Q9Y6K1 whole entry, looked up): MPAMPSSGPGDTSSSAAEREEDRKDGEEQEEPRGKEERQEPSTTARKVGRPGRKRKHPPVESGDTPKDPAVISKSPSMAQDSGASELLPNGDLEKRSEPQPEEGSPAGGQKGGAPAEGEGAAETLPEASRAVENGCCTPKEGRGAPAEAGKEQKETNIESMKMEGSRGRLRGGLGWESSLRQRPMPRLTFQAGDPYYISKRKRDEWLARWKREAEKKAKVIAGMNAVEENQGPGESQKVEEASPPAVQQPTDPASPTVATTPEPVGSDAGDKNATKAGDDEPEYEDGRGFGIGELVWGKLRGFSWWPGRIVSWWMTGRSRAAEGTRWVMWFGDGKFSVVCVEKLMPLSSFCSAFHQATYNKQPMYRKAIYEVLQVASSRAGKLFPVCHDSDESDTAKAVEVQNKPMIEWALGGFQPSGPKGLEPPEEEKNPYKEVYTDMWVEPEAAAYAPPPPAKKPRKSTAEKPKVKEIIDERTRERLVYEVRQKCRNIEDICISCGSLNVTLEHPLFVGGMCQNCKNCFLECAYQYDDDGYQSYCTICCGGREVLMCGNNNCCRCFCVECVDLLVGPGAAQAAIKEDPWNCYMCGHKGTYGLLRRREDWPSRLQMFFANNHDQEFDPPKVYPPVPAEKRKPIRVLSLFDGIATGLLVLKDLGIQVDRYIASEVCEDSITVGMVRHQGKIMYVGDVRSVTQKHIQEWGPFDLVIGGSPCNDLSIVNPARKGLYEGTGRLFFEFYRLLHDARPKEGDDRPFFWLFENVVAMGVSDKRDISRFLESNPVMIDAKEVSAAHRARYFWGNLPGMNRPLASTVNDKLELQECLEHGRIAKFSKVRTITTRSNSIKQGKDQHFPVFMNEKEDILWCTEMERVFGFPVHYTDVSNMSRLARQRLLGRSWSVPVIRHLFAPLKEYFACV

[4] = molecular target: T3, DNA (cytosine-5)-methyltransferase 3B (Homo sapiens, UniProt Q9UBC3); experiment: Inhibition of DNMT3B (unknown origin) at 5 uM preincubated for 15 mins followed by substrate and [3H-SAM] addition and measured after 60 mins by microbeta analysis relative to control; details: time 75.0 min
[5] = molecular target: T4, Histone-lysine N-methyltransferase EHMT2 (Homo sapiens) (UniProt Q96KQ7); experiment: Inhibition of G9a (unknown origin) at 5 uM preincubated for 15 mins followed by substrate and [3H-SAM] addition and measured after 60 mins by microbeta analysis relative to control; details: time 75.0 min
T4 sequence (whole entry): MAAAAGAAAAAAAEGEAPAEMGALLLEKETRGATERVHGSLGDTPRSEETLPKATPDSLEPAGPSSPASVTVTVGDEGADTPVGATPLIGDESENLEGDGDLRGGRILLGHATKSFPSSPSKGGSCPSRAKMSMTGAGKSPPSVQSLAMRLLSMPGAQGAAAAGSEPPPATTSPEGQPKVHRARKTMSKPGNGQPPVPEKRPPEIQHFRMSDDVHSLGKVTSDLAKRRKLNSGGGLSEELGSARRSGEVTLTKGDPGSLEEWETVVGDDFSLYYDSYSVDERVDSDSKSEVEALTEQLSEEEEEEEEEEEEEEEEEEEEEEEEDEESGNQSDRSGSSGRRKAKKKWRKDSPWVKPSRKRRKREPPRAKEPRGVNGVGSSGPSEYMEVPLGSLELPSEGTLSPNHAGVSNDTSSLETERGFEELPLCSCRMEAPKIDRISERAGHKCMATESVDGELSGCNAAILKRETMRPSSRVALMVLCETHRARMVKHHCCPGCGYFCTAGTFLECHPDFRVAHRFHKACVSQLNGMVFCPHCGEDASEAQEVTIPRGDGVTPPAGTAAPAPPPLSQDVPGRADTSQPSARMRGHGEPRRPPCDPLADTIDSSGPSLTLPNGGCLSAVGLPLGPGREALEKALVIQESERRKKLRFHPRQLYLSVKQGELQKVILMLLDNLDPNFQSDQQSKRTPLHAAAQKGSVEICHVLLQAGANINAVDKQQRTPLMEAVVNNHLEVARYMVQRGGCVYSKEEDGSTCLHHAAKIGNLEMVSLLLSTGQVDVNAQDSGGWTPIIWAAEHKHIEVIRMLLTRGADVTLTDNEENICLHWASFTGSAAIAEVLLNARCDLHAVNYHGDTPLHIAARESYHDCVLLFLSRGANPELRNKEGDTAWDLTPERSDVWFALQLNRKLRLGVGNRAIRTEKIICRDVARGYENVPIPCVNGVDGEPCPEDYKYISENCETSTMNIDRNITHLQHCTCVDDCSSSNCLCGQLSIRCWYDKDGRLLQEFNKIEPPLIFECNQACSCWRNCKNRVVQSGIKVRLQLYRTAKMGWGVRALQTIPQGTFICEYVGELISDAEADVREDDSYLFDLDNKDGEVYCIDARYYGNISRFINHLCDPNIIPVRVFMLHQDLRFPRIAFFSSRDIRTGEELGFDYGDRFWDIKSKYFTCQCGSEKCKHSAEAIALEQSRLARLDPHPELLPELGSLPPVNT

MV4-11 = experiment: Antiproliferative activity against human MV4-11 cells assessed as inhibition of cell viability measured after 72 hrs by MTT assay; format: functional, cell-based; details: MV4-11, 72 h
U-937 = experiment: Antiproliferative activity against human U-937 cells assessed as inhibition of cell viability measured after 72 hrs by MTT assay; format: functional, cell-based; details: U-937, 72 h
[6] = molecular target: T2, DNA (cytosine-5)-methyltransferase 3A; experiment: Inhibition of DNMT3A (unknown origin) preincubated for 15 mins followed by substrate and [3H-SAM] addition and measured after 60 mins by microbeta analysis
[7] = molecular target: T3, DNA (cytosine-5)-methyltransferase 3B; experiment: Inhibition of DNMT3B (unknown origin) preincubated for 15 mins followed by substrate and [3H-SAM] addition and measured after 60 mins by microbeta analysis

T1 sequence (P26358 whole entry): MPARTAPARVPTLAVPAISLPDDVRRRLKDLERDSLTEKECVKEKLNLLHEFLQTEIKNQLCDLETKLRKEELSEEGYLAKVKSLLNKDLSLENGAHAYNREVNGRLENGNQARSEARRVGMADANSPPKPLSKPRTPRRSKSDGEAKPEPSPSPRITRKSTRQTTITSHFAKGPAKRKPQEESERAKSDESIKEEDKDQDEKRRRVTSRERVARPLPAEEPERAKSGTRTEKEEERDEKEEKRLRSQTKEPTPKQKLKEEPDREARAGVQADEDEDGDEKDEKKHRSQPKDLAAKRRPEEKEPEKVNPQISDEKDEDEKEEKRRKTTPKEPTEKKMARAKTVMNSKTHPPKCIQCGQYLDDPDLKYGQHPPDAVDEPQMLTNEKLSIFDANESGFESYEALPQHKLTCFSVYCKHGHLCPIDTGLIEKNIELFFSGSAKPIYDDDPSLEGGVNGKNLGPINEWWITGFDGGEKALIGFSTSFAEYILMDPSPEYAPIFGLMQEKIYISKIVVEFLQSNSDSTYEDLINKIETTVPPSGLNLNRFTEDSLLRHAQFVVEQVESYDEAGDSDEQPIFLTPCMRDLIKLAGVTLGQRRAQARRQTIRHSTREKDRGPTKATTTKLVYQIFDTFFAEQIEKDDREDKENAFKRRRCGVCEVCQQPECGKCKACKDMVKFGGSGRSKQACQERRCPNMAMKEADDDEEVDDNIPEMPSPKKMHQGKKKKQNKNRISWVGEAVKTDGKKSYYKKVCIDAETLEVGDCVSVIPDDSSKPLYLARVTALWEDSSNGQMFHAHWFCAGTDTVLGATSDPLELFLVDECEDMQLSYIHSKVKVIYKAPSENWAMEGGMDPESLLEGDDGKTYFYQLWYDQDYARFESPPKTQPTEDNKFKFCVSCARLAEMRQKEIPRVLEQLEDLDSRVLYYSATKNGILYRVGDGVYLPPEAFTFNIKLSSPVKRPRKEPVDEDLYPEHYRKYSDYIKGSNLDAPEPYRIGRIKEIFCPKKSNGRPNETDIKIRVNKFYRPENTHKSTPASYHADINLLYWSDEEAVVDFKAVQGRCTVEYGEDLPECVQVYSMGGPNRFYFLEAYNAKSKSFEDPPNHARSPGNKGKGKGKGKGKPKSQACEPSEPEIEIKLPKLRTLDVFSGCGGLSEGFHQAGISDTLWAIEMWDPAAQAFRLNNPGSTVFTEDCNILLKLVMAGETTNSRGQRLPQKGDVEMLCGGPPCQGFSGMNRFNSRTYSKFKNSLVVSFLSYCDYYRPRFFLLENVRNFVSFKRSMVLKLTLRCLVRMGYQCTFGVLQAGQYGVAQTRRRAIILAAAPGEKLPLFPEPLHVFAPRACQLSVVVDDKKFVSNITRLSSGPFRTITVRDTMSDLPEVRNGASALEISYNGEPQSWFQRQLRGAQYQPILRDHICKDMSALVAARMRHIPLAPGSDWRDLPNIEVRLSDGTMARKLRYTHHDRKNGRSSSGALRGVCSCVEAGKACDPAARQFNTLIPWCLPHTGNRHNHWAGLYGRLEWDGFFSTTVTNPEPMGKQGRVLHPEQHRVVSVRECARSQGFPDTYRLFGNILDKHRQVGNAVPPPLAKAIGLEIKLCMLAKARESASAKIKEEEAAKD

Row | Compound | IC50 [1] [µM] | inhibition [2] [%] | inhibition [3] [%] | inhibition [4] [%] | inhibition [5] [%] | IC50 (MV4-11) [µM] | IC50 (U-937) [µM] | IC50 [6] [µM] | IC50 [7] [µM]
1 | CC(C)N1CCC(Nc2nc(-c3ccc(F)cc3)nc3c2ncn3CCCN2CCCC2)CC1 | 17.4 | 3.3 | 14 | 11 | -4.9 | 10.4 | 12.8 |  | 
2 | CN1CCC(Nc2nc(N3CCCCC3)nc3c2ccn3CCCN2CCOCC2)CC1 |  | 21 | 3.7 | -0.3 | 12 | 24 | 41 |  | 
3 | CC(C)N1CCC(Nc2nc(N3CCCCC3)nc3c2ncn3CCCN2CCCC2)CC1 |  | 12 | 4.3 | 9.9 | 7.6 | > 100 | > 100 |  | 
4 | CN1CCC(Nc2nc(-c3ccc(C(F)(F)F)cc3)nc3c2ccn3CCCN2CCCC2)CC1 |  | 42 | 9.7 | 1.1 |  | 1.16 | 0.98 |  | 
5 | Cc1ccc(-c2nc(NC3CCN(C(C)C)CC3)c3ncn(CCCN4CCCC4)c3n2)o1 | 23.8 | 37 | 22 | 2 | 2.5 | 46.1 | 55.2 |  | 
6 | Cc1ccc(-c2cc(NCC3CCNCC3)c3cnn(CCCN4CCCC4)c3c2)o1 |  | 41 | 20 |  | 22 | 2.33 | 8.91 |  | 
7 | CC(C)N1CCC(Nc2nc(-c3cn[nH]c3)nc3c2ncn3CCCN2CCCC2)CC1 | 55.4 | 49 | 8.6 | -5.5 | -2.4 | > 100 | > 100 |  | 
8 | CN1CCC(Nc2nc(N3CCN(C)CC3)nc3c2ccn3CCCN2CCCC2)CC1 |  | 39 | 11 | 11 | -1.9 | 11.1 | 30.9 | 2.8 | 
9 | CN1CCC(Nc2nc(-c3ccc(F)cc3)nc3c2ccn3CCCN2CCCC2)CC1 |  | 63 | 13 | -6.6 | 0.3 | 1.66 | 2.45 | 4 | 18.3
10 | CN1CCC(Nc2nc(-c3ccccc3)nc3c2ccn3CCCN2CCCC2)CC1 |  | 45 | 8.6 | 6.6 | 1.1 | 6.68 | 18.2 | 7.36 | 
11 | CC(C)(C)OC(=O)N1CCC(CNc2cc(-c3ccc(F)cc3)cc3c2cnn3CCCN2CCCC2)CC1 |  | 32 | 6.8 | 9.1 |  | 1.21 | 1.07 |  | 
12 | CN1CCC(Nc2nc(N3CCCN(C)CC3)nc3c2ccn3CCCN2CCCC2)CC1 |  | 31 |  |  | 2.9 | 26 | 43.3 | 6.17 | 
13 | CN1CCC(Nc2nc(N3CCOCC3)nc3c2ccn3CCCN2CCCC2)CC1 |  | 25 | -1.8 | 15 | 7.2 | 25.9 | > 100 |  | 
14 | CN1CCC(Nc2nc(-c3ccc(F)nc3)nc3c2ccn3CCCN2CCOCC2)CC1 |  | 17 | 16 | 0.2 | 11 | 10.6 | 6.84 |  | 
15 | CC(C)N1CCC(Nc2nc(-c3ccccc3)nc3c2ncn3CCCN2CCCC2)CC1 | 11.9 | 7.2 | 21 | 0.7 | 6 | 8.85 | 12.4 |  | 
16 | CC(C)N1CCC(Nc2nc(N3CCCCC3)nc3c2ccn3CCCN2CCCC2)CC1 |  | 13 | 0.8 | 11 | 6.5 | 12.3 | 14.5 |  | 

Row | Compound | IC50 [1] [µM] | inhibition [2] [%] | inhibition [3] [%] | inhibition [4] [%] | inhibition [5] [%] | IC50 (MV4-11) [µM] | IC50 (U-937) [µM] | IC50 [6] [µM] | IC50 [7] [µM]
17 | Cc1ccc(-c2cc(NCC3CCN(Cc4ccccc4)CC3)c3cnn(CCCN4CCCC4)c3c2)o1 |  | 61 | 25 |  | 14 | 1 | 1.59 |  | 
18 | COc1ccc(-c2cc(NCC3CCN(Cc4ccccc4)CC3)c3cnn(CCCN4CCCC4)c3c2)cc1 |  | 48 | 24 | 1.2 |  | 1.44 | 1.02 |  | 
19 | CN1CCC(Nc2nc(N3CCN(C)CC3)nc3c2ccn3CCCN2CCOCC2)CC1 |  | 25 | 9.5 | 16 | 12 | 23.8 | 58.6 |  | 
20 | CC(C)N1CCC(Nc2nc(N3CCN(C)CC3)nc3c2ncn3CCCN2CCCC2)CC1 |  | 17 | -6.9 |  |  | 8.25 | 14.2 |  | 
21 | Cc1ccc(-c2cc(NCC3CCN(C(=O)OC(C)(C)C)CC3)c3cnn(CCCN4CCCC4)c3c2)o1 |  | 1.6 | 17 | 11 | 12 | 1.06 | 3.21 |  | 
22 | CN1CCN(c2cc(NCC3CCN(C(=O)OC(C)(C)C)CC3)c3cnn(CCCN4CCOCC4)c3c2)CC1 |  | 98 | 19 | 31 | 10 | 22.1 | 23.9 |  | 
23 | CN1CCC(Nc2nc(N3CCCC3)nc3c2ccn3CCCN2CCCC2)CC1 |  | 25 | 4.2 |  | 1.3 | 11 | 46.3 |  | 
24 | CN1CCC(Nc2nc(N3CCCCC3)nc3c2ccn3CCCN2CCCC2)CC1 |  | 20 | 6.9 | -9.7 | 1.9 | 9.62 | 17.7 |  | 
25 | Cc1ccc(-c2cc(NC3CCN(C(C)C)CC3)c3cnn(CCCN4CCCC4)c3c2)o1 |  | 56 | 13 | -9.4 | 12 | 11.9 | 12.2 |  | 
26 | CC(C)N1CCC(Nc2nc(N3CCOCC3)nc3c2ccn3CCCN2CCCC2)CC1 |  | 6.7 | 2.6 | -9.7 | -1.4 | 40.9 | > 100 |  | 
27 | CC(C)N1CCC(Nc2nc(N3CCN(C)CC3)nc3c2ccn3CCCN2CCCC2)CC1 |  | 20 | 6.6 | 4.3 | 3.6 | 2.87 | 15.6 |  | 
28 | Cc1ccc(-c2nc(NC3CCN(C)CC3)c3ccn(CCCN4CCCC4)c3n2)o1 |  | 43 | 16.5 | -2.5 | 7.2 | 11.8 | 43.6 | 7.95 | 14.6
29 | CN1CCC(Nc2nc(-c3cn[nH]c3)nc3c2ccn3CCCN2CCCC2)CC1 |  | 35 | 7.2 | -6.9 | -2 | > 100 | > 100 | 7.13 | 
30 | Cc1ccc(-c2cc(NCC3CCN(C(=O)OCc4ccccc4)CC3)c3cnn(CCCN4CCCC4)c3c2)o1 | > 30 | 0.36 | 12 | 53 | 9.7 | 1.07 | 6.95 |  | 
31 | CN1CCN(c2cc(NCC3CCN(C(=O)C4CCCC4)CC3)c3cnn(CCCN4CCOCC4)c3c2)CC1 |  |  |  |  |  | 8.67 |  |  | 
